System: rodent lifetime carcinogenesis bioassay, tumor incidence TD50
Experiment: carcinogenic potency in animals, long-term in vivo studies, CPDB compilation (AID 1745844)

## Cn1c(N)nc2c3cccnc3ccc21
monkey, strain Cynomolgus [Macaca fascicularis], both sexes, by gavage, site: any site (literature study), lesion: malignant tumor, dosed 485 weeks, study length 485 weeks
  TD50: 0.374 mg/kg/day
monkey, strain Cynomolgus [Macaca fascicularis], both sexes, by gavage, site: liver, lesion: hepatocellular carcinoma, dosed 485 weeks, study length 485 weeks
  TD50: 0.374 mg/kg/day
mouse, strain CDF1, females, in feed, site: forestomach, lesion: several types, types named in the paper, dosed 96 weeks, study length 96 weeks
  TD50: 62.4 mg/kg/day
mouse, strain CDF1, females, in feed, site: liver, lesion: hepatocellular carcinoma, dosed 96 weeks, study length 96 weeks
  TD50: 24.1 mg/kg/day
mouse, strain CDF1, females, in feed, site: liver, lesion: several types, types named in the paper, dosed 96 weeks, study length 96 weeks
  TD50: 17.5 mg/kg/day
mouse, strain CDF1, females, in feed, site: lung, lesion: several types, types named in the paper, dosed 96 weeks, study length 96 weeks
  TD50: 67.9 mg/kg/day
mouse, strain CDF1, males, in feed, site: forestomach, lesion: several types, types named in the paper, dosed 96 weeks, study length 96 weeks
  TD50: 42.3 mg/kg/day
mouse, strain CDF1, males, in feed, site: forestomach, lesion: squamous-cell carcinoma, dosed 96 weeks, study length 96 weeks
  TD50: 153 mg/kg/day
mouse, strain CDF1, males, in feed, site: liver, lesion: hepatocellular carcinoma, dosed 96 weeks, study length 96 weeks
  TD50: 91.6 mg/kg/day
mouse, strain CDF1, males, in feed, site: liver, lesion: several types, types named in the paper, dosed 96 weeks, study length 96 weeks
  TD50: 48.6 mg/kg/day
mouse, strain CDF1, males, in feed, site: lung, lesion: adenocarcinoma, dosed 96 weeks, study length 96 weeks
  TD50: 60.2 mg/kg/day
mouse, strain CDF1, males, in feed, site: lung, lesion: several types, types named in the paper, dosed 96 weeks, study length 96 weeks
  TD50: 22.4 mg/kg/day
rat, strain F344/DuCrj, females, in feed, site: Zymbal's gland, lesion: squamous-cell carcinoma, dosed 72 weeks, study length 72 weeks
  TD50: 4.38 mg/kg/day
rat, strain F344/DuCrj, females, in feed, site: clitoral gland, lesion: squamous-cell carcinoma, dosed 72 weeks, study length 72 weeks
  TD50: 7.11 mg/kg/day
rat, strain F344/DuCrj, females, in feed, site: large intestine, lesion: adenocarcinoma, dosed 72 weeks, study length 72 weeks
  TD50: 19.3 mg/kg/day
rat, strain F344/DuCrj, females, in feed, site: liver, lesion: hepatocellular carcinoma, dosed 72 weeks, study length 72 weeks
  TD50: 8.24 mg/kg/day
rat, strain F344/DuCrj, females, in feed, site: oral cavity, lesion: squamous-cell carcinoma, dosed 72 weeks, study length 72 weeks
  TD50: 195 mg/kg/day
rat, strain F344/DuCrj, females, in feed, site: skin, lesion: squamous-cell carcinoma, dosed 72 weeks, study length 72 weeks
  TD50: 63.2 mg/kg/day
rat, strain F344/DuCrj, females, in feed, site: small intestine, lesion: adenocarcinoma, dosed 72 weeks, study length 72 weeks
  TD50: 195 mg/kg/day
rat, strain F344/DuCrj, males, in feed, site: Zymbal's gland, lesion: squamous-cell carcinoma, dosed 55 weeks, study length 55 weeks
  TD50: 0.999 mg/kg/day
rat, strain F344/DuCrj, males, in feed, site: large intestine, lesion: adenocarcinoma, dosed 55 weeks, study length 55 weeks
  TD50: 2.34 mg/kg/day
rat, strain F344/DuCrj, males, in feed, site: liver, lesion: hepatocellular carcinoma, dosed 55 weeks, study length 55 weeks
  TD50: 2.08 mg/kg/day
rat, strain F344/DuCrj, males, in feed, site: oral cavity, lesion: squamous-cell carcinoma, dosed 55 weeks, study length 55 weeks
  TD50: 44.8 mg/kg/day
rat, strain F344/DuCrj, males, in feed, site: skin, lesion: squamous-cell carcinoma, dosed 55 weeks, study length 55 weeks
  TD50: 4.16 mg/kg/day
rat, strain F344/DuCrj, males, in feed, site: small intestine, lesion: adenocarcinoma, dosed 55 weeks, study length 55 weeks
  TD50: 6.45 mg/kg/day
rat, strain Fischer 344, females, in feed, site: Zymbal's gland, lesion: one or several types, types not named, dosed 53 weeks, study length 78 weeks
  TD50: 2.26 mg/kg/day
rat, strain Fischer 344, females, in feed, site: liver, lesion: hepatocellular carcinoma, dosed 53 weeks, study length 78 weeks
  TD50: 5.06 mg/kg/day
rat, strain Fischer 344, females, in feed, site: lung, lesion: adenoma, dosed 53 weeks, study length 78 weeks
  TD50: 16.2 mg/kg/day
rat, strain Fischer 344, females, in feed, site: mammary gland, lesion: one or several types, types not named, dosed 53 weeks, study length 78 weeks
  TD50: 3.52 mg/kg/day
rat, strain Fischer 344, females, in feed, site: preputial gland, lesion: one or several types, types not named, dosed 53 weeks, study length 78 weeks
  TD50: 3.19 mg/kg/day
rat, strain Fischer 344, females, in feed, site: sebaceous gland, lesion: several types, types named in the paper, dosed 53 weeks, study length 78 weeks
  TD50: 32.9 mg/kg/day
rat, strain Fischer 344, males, by gavage, site: Zymbal's gland, lesion: squamous-cell carcinoma, dosed 35 weeks, study length 52 weeks
  TD50: 0.287 mg/kg/day
rat, strain Fischer 344, males, by gavage, site: any site (literature study), lesion: several types, types named in the paper, dosed 35 weeks, study length 52 weeks
  TD50: 0.287 mg/kg/day
rat, strain Fischer 344, males, by gavage, site: colon, lesion: adenocarcinoma, dosed 35 weeks, study length 52 weeks
  TD50: 0.803 mg/kg/day
rat, strain Fischer 344, males, by gavage, site: liver, lesion: hepatocellular carcinoma, dosed 35 weeks, study length 52 weeks
  TD50: 0.579 mg/kg/day
rat, strain Fischer 344, males, by gavage, site: skin, lesion: squamous-cell carcinoma, dosed 35 weeks, study length 52 weeks
  TD50: 0.579 mg/kg/day
rat, strain Fischer 344, males, by gavage, site: small intestine, lesion: adenocarcinoma, dosed 35 weeks, study length 52 weeks
  TD50: 1.55 mg/kg/day
rat, strain Fischer 344, males, in feed, site: Zymbal's gland, lesion: one or several types, types not named, dosed 53 weeks, study length 63 weeks
  TD50: 1.2 mg/kg/day
rat, strain Fischer 344, males, in feed, site: colon, lesion: one or several types, types not named, dosed 53 weeks, study length 63 weeks
  TD50: 10.5 mg/kg/day
rat, strain Fischer 344, males, in feed, site: liver, lesion: hepatocellular carcinoma, dosed 53 weeks, study length 63 weeks
  TD50: 10.5 mg/kg/day
rat, strain Fischer 344, males, in feed, site: lung, lesion: several types, types named in the paper, dosed 53 weeks, study length 63 weeks
  TD50: 27.1 mg/kg/day
rat, strain Fischer 344, males, in feed, site: preputial gland, lesion: one or several types, types not named, dosed 53 weeks, study length 63 weeks
  TD50: 6.87 mg/kg/day
rat, strain Fischer 344, males, in feed, site: sebaceous gland, lesion: several types, types named in the paper, dosed 53 weeks, study length 63 weeks
  TD50: 0.998 mg/kg/day
